The structures appear in SMILES notation. Activity calls are given as the source filed them. No cut-off for these calls is given here.

The test system of data set [1] is SH-SY5Y. As to the kind of experiment: Cytoprotective activity against H2O2-induced toxicity in human SH-SY5Y cells assessed as increase in cell viability at 1 uM preincubated for 24 hrs followed by H2O2 addition measured after 24 hrs by MTT assay relative to PBN. The data set is classed as functional. In general terms: Tetrazolium dyes change colour on reduction, which living cells bring about.

For data set [2], the system named is SH-SY5Y. The experiment in a line: Cytoprotective activity against H2O2-induced toxicity in human SH-SY5Y cells assessed as increase in cell viability at 1 uM preincubated for 24 hrs followed by H2O2 addition measured after 24 hrs by MTT assay relative to control. The data set is classed as functional.
The test system of data set [3] is SH-SY5Y. The experiment in a line: Toxicity in H2O2 stressed human SH-SY5Y cells assessed as effect on total glutathione level at 1 uM preincubated for 24 hrs followed by H2O2 addition measured after 24 hrs by spectrophotometric analysis. The data set is classed as cell-based.
Data set [4] relates to SH-SY5Y. The experiment in a line: Cytoprotective activity against H2O2-induced apoptosis in human SH-SY5Y cells assessed as viable cells at 1 uM preincubated for 24 hrs followed by H2O2 addition measured after 24 hrs by annexin V-FITC/propidium iodide staining-based flow cytometric analysis (reference value: 71.08 +/- 2.34%). The data set is classed as functional. The settings on record: read-out: Activity. On the technique in general: Flow cytometry measures light scatter and fluorescence of single cells or particles in a stream.

For data set [5], the system named is SH-SY5Y. The experiment in a line: Cytoprotective activity against H2O2 stressed human SH-SY5Y cells assessed as increase in glutathione level at 1 uM preincubated for 24 hrs followed by H2O2 addition measured after 24 hrs by spectrophotometric analysis. The data set is classed as functional.
The subject of data set [6] is SH-SY5Y. The experiment in a line: Cytoprotective activity against H2O2-induced apoptosis in human SH-SY5Y cells assessed as dead cells at 1 uM preincubated for 24 hrs followed by H2O2 addition measured after 24 hrs by annexin V-FITC/propidium iodide staining-based flow cytometric analysis (reference value: 25.81 +/- 3.57%). In kind it is functional.
In data set [7] the test system is SH-SY5Y. The experiment in a line: Cytoprotective activity against H2O2-induced oxidative stress in human SH-SY5Y cells at 1 uM preincubated for 24 hrs followed by H2O2 addition measured after 24 hrs by DCFHDA dye-based flow cytometric analysis. In kind it is functional, cell-based.
Data set [8] has as its system SH-SY5Y. The experiment in a line: Cytoprotective activity against H2O2-induced apoptosis in human SH-SY5Y cells assessed as early apoptotic cells at 1 uM preincubated for 24 hrs followed by H2O2 addition measured after 24 hrs by annexin V-FITC/propidium iodide staining-based flow cytometric analysis relative to control. In kind it is functional.
The subject of data set [9] is SH-SY5Y. As to the kind of experiment: Cytoprotective activity against H2O2-induced apoptosis in human SH-SY5Y cells assessed as late apoptotic cells at 1 uM preincubated for 24 hrs followed by H2O2 addition measured after 24 hrs by annexin V-FITC/propidium iodide staining-based flow cytometric analysis (reference value: 2.78 +/- 0.53%). The data set is classed as functional.

Data set [10] deals with SH-SY5Y. The experiment in a line: Cytoprotective activity against H2O2-induced apoptosis in human SH-SY5Y cells assessed as early apoptotic cells at 100 nM preincubated for 24 hrs followed by H2O2 addition measured after 24 hrs by annexin V-FITC/propidium iodide staining-based flow cytometric analysis relative to control. The data set is classed as functional.
For data set [11], the system named is SH-SY5Y. As to the kind of experiment: Cytoprotective activity against H2O2-induced apoptosis in human SH-SY5Y cells assessed as dead cells at 100 nM preincubated for 24 hrs followed by H2O2 addition measured after 24 hrs by annexin V-FITC/propidium iodide staining-based flow cytometric analysis (reference value: 25.81 +/- 3.57%). The data set is classed as functional.

The test system of data set [12] is SH-SY5Y. As to the kind of experiment: Cytoprotective activity against H2O2-induced apoptosis in human SH-SY5Y cells assessed as late apoptotic cells at 100 nM preincubated for 24 hrs followed by H2O2 addition measured after 24 hrs by annexin V-FITC/propidium iodide staining-based flow cytometric analysis (reference value: 2.78 +/- 0.53%). The data set is classed as functional.

On to `[O-]/[N+](=C\c1ccccc1)c1ccc(Cl)cc1`, for which the Activity in the data set on SH-SY5Y [1] was found to be 42%; in the data set with SH-SY5Y [2] it was 71%.

As to `[O-]/[N+](=C\c1ccccc1)c1ccccc1`, the Activity result in the data set on SH-SY5Y [3] is “Non-toxic”; in the data set on SH-SY5Y [1], 42%; in the data set with SH-SY5Y [2] it was 71%; in the data set on SH-SY5Y [5], 65%; with SH-SY5Y [6], 3.78%; with SH-SY5Y [8], 0%. The Activity with SH-SY5Y [9] turned out to be 1.56%. Further, the viability at 1 µM in the data set with SH-SY5Y [4] was 85%. Moreover, in the data set on SH-SY5Y [7], the result was Active.

Consider `Cc1ccc(/[N+]([O-])=C/c2ccccc2)cc1C`, for which the Activity entry with SH-SY5Y [3] is recorded as “Non-toxic”; with SH-SY5Y [1] it was 42%; with SH-SY5Y [2], 95%; in the data set on SH-SY5Y [5], 65%; with SH-SY5Y [6] it was 9.13%; in the data set with SH-SY5Y [8] it was 0%. In addition, in the data set with SH-SY5Y [9], the Activity was found to be 1.21%. In addition, the viability at 1 µM in the data set on SH-SY5Y [4] stood at 85%. In addition, the result with SH-SY5Y [7] was Active.

For `CC(C)(C)/[N+]([O-])=C\c1ccccc1`, the Activity with SH-SY5Y [5] is 65%; with SH-SY5Y [6] it was 9.42%; with SH-SY5Y [8], 0.03%; in the data set on SH-SY5Y [9] it was 2.4%. Further, in the data set on SH-SY5Y [7], the result was Active.

In the case of `[O-]/[N+](=C\c1ccc2c(c1)OCO2)c1ccc(Cl)cc1`, the figures for the Activity with SH-SY5Y [1] and in the data set on SH-SY5Y [2] were 42% and 71%, respectively.

Take `Cc1ccc(/[N+]([O-])=C/c2ccc3c(c2)OCO3)cc1C`: the Activity in the data set on SH-SY5Y [1] was 42%; in the data set with SH-SY5Y [2] it was 71%.

Consider `[O-]/[N+](=C\c1ccncc1)c1ccccc1`, for which the figures for the Activity with SH-SY5Y [1] and with SH-SY5Y [2] were 42% and 71%, respectively.

On to `[O-]/[N+](=C\c1ccncc1)c1ccc(Cl)cc1`, for which the Activity is 42% with SH-SY5Y [1] and 71% in the data set with SH-SY5Y [2].

Take `[O-]/[N+](=C\c1ccc2c(c1)OCO2)c1ccccc1`: the Activity in the data set on SH-SY5Y [1] turned out to be 42%; in the data set on SH-SY5Y [2], 71%.

As for `Cc1ccc(/[N+]([O-])=C/c2ccncc2)cc1C`, the Activity with SH-SY5Y [1] is 42%; in the data set with SH-SY5Y [2], 71%.

For `CN[C@@H]1C[C@H]2O[C@@](C)([C@@H]1OC)n1c3ccccc3c3c4c(c5c6ccccc6n2c5c31)C(=O)NC4` [STAUROSPORINE], the Activity with SH-SY5Y [10] turned out to be 2.63%; in the data set with SH-SY5Y [11], 6.19%; in the data set on SH-SY5Y [12], 14.49%.

The values above are taken from ChEMBL document CHEMBL3745698, “α-Aryl-N-aryl nitrones: Synthesis and screening of a new scaffold for cellular protection against an oxidative toxic stimulus” (Bioorg Med Chem, 2016).
